Experimental data as given in patent publication US20230278972A1, “SUBSTITUTED HALOALKYL SULFONANILIDE HERBICIDES” (FMC Corporation, priority 2020, published 2023).

How the values were obtained:
Format in all cases: in vivo
[1] = test system: Ryegrass, Italian (Italian ryegrass, Lolium multiflorum); experiment: Test A postemergence, Ryegrass, Italian; settings: Postemergence; for Ryegrass, Italian plant response rating: 500 g ai/ha, visual injury vs untreated controls after approx. 10 days
Summary of the method: (§1)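 Seeds are sown in loam mixed with sand and sprayed on the soil surface right after planting for the preemergence test. Postemergence pots are sprayed once seedlings reach 2 to 10 cm at the one- to two-leaf stage. The same surfactant-containing, non-phytotoxic solvent formulation serves both.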

corn (Zea mays) = experiment: Test A postemergence, corn; settings: Postemergence; for Corn plant response rating: 500 g ai/ha, visual injury vs untreated controls after approx. 10 days
Summary of the method: as §1

kochia (Bassia scoparia) [2] = experiment: Test A postemergence, kochia; settings: Postemergence; for Kochia plant response rating: 500 g ai/ha, visual injury vs untreated controls after approx. 10 days
Summary of the method: as §1

[3] = test system: pigweed (Amaranthus retroflexus); experiment: Test A preemergence, pigweed; settings: for Plant response rating, Pigweed: 0 to 100 scale (0 no effect, 100 complete control); for Pigweed plant response rating: 125 g ai/ha, visual injury on 0 to 100 scale (0 no effect, 100 complete control), approximately 10 days
Summary of the method: (§2)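 Compounds in non-phytotoxic solvent with surfactant. Soil: loam/sand. Preemergence via directed soil spray after seeding; postemergence on seedlings 2–10 cm, one- to two-leaf.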

[4] = test system: barnyardgrass (Echinochloa crus-galli); experiment: Test A preemergence, barnyardgrass; settings: Preemergence; for Plant response rating, Barnyardgrass: 0 to 100 scale (0 no effect, 100 complete control); for Barnyardgrass plant response rating: 125 g ai/ha, visual injury on 0 to 100 scale (0 no effect, 100 complete control), approximately 10 days
Summary of the method: as §1

[5] = test system: ragweed (common ragweed, Ambrosia artemisiifolia); experiment: Test A postemergence, ragweed; settings: Postemergence; for Ragweed plant response rating: 500 g ai/ha, visual injury vs untreated controls after approx. 10 days
Summary of the method: as §1

[6] = test system: Ryegrass, Italian (Italian ryegrass, Lolium multiflorum); experiment: Test A preemergence, Ryegrass, Italian; settings: Preemergence; for Plant response rating, Ryegrass, Italian: 0 to 100 scale (0 no effect, 100 complete control); for Ryegrass, Italian plant response rating: 125 g ai/ha, visual injury on 0 to 100 scale (0 no effect, 100 complete control), approximately 10 days
Summary of the method: as §1

[7] = test system: pigweed (Amaranthus retroflexus); experiment: Test A postemergence, pigweed; settings: Postemergence; for Pigweed plant response rating: 500 g ai/ha, visual injury vs untreated controls after approx. 10 days
Summary of the method: as §1

[8] = test system: ragweed (common ragweed, Ambrosia artemisiifolia); experiment: Test A preemergence, ragweed; settings: Preemergence; for Plant response rating, Ragweed: 0 to 100 scale (0 no effect, 100 complete control); for Ragweed plant response rating: 125 g ai/ha, visual injury on 0 to 100 scale (0 no effect, 100 complete control), approximately 10 days
Summary of the method: as §1

[9] = test system: blackgrass (Alopecurus myosuroides); experiment: Test A postemergence, blackgrass; settings: Postemergence; for Blackgrass plant response rating: 500 g ai/ha, visual injury vs untreated controls after approx. 10 days
Summary of the method: as §1

kochia (Bassia scoparia) [10] = experiment: Test A preemergence, kochia; settings: Preemergence; for Plant response rating, Kochia: 0 to 100 scale (0 no effect, 100 complete control); for Kochia plant response rating: 125 g ai/ha, visual injury on 0 to 100 scale (0 no effect, 100 complete control), approximately 10 days
Summary of the method: as §1

[11] = test system: galium (catchweed bedstraw, Galium aparine); experiment: Test A postemergence, galium; settings: Postemergence; for Galium plant response rating: 500 g ai/ha, visual injury vs untreated controls after approx. 10 days
Summary of the method: as §2

[12] = test system: barnyardgrass (Echinochloa crus-galli); experiment: Test A postemergence, barnyardgrass; settings: Postemergence; for Barnyardgrass plant response rating: 500 g ai/ha, visual injury vs untreated controls after approx. 10 days
Summary of the method: as §2

[13] = test system: Foxtail, Giant (giant foxtail, Setaria faberi); experiment: Test A preemergence, Foxtail, Giant; settings: Preemergence; for Plant response rating, Foxtail, Giant: 0 to 100 scale (0 no effect, 100 complete control); for Foxtail, Giant plant response rating: 125 g ai/ha, visual injury on 0 to 100 scale (0 no effect, 100 complete control), approximately 10 days
Summary of the method: as §1

[14] = test system: wheat (Triticum aestivum); experiment: Test A postemergence, wheat; settings: Postemergence; for Wheat plant response rating: 500 g ai/ha, visual injury vs untreated controls after approx. 10 days
Summary of the method: as §2

[15] = test system: Foxtail, Giant (giant foxtail, Setaria faberi); experiment: Test A postemergence, Foxtail, Giant; settings: Postemergence; for Foxtail, Giant plant response rating: 500 g ai/ha, visual injury vs untreated controls after approx. 10 days
Summary of the method: as §1

[16] = 31 g ai/ha, visual injury on 0 to 100 scale (0 no effect, 100 complete control), approx. 10 days
[17] = 125 g ai/ha, 0 to 100 scale (0 no effect, 100 complete control)
[18] = 31 g ai/ha, visual injury, approx. 10 days
[19] = 0 to 100 scale (0 no effect, 100 complete control)

| SMILES | Plant response rating, Ryegrass, Italian [1, 16] | Plant response rating, Ryegrass, Italian [1, 17] | Plant response rating, Corn (corn (Zea mays); [16]) | Plant response rating, Corn (corn (Zea mays); [17]) | Plant response rating, Kochia (kochia (Bassia scoparia) [2]; [16]) | Plant response rating, Kochia (kochia (Bassia scoparia) [2]; [17]) | Plant response rating, Pigweed [3, 18] | Pigweed plant response rating [3] | Barnyardgrass plant response rating [4] | Plant response rating, Ragweed [5, 17] | Ryegrass, Italian plant response rating [6] | Plant response rating, Pigweed [7, 17] | Ragweed plant response rating [8] | Plant response rating, Blackgrass [9, 17] | Kochia plant response rating (kochia (Bassia scoparia) [10]) | Plant response rating, Galium [11, 17] | Plant response rating, Barnyardgrass [12, 17] | Foxtail, Giant plant response rating [13] | Plant response rating, Wheat [14, 17] | Plant response rating, Foxtail, Giant [15, 17] | also measured |
| --- | --- | --- | --- | --- | --- | --- | --- | --- | --- | --- | --- | --- | --- | --- | --- | --- | --- | --- | --- | --- | --- |
| Cc1cc(C)c(C(=O)N2CCCC(F)C2)cc1NS(=O)(=O)C(F)(F)F (stereo not shown) [Compound 155] | 40 | 90 | 50 | 90 | 20 | 60 | 90 | 100 | 90 | 80 | 80 | 90 | 80 | 30 | 40 | 90 | 90 | 80 | 60 | 30 | Plant response rating, Barnyardgrass [4, 18]: 50; Plant response rating, Ragweed [5, 16]: 60; Plant response rating, Ryegrass, Italian [6, 18]: 80; Plant response rating, Pigweed [7, 16]: 80; Plant response rating, Ragweed [8, 18]: 90; Plant response rating, Blackgrass [9, 16]: 10; Plant response rating, Kochia (kochia (Bassia scoparia) [10]; [18]): 30; Plant response rating, Galium [11, 16]: 80; Plant response rating, Barnyardgrass [12, 16]: 90; Plant response rating, Foxtail, Giant [13, 18]: 50; Plant response rating, Wheat [14, 16]: 30; Plant response rating, Foxtail, Giant [15, 16]: 20 |
| Cc1cc(C)c(N2CC3(CCOCC3)OC2=O)cc1NS(=O)(=O)C(F)(F)F [Compound 156] | 0 | 10 | 0 | 20 | 40 | 70 | 80 | 100 | 100 | 90 | 70 | 90 | 90 | 40 | 50 | 100 | 90 | 100 | 40 | 70 | Plant response rating, Barnyardgrass [4, 18]: 70; Plant response rating, Ragweed [5, 16]: 90; Plant response rating, Ryegrass, Italian [6, 18]: 50; Plant response rating, Pigweed [7, 16]: 60; Plant response rating, Ragweed [8, 18]: 60; Plant response rating, Blackgrass [9, 16]: 0; Plant response rating, Kochia (kochia (Bassia scoparia) [10]; [18]): 30; Plant response rating, Galium [11, 16]: 100; Plant response rating, Barnyardgrass [12, 16]: 90; Plant response rating, Foxtail, Giant [13, 18]: 50; Plant response rating, Wheat [14, 16]: 30; Plant response rating, Foxtail, Giant [15, 16]: 30 |
| Cc1cc(C)c(N(S(=O)(=O)C(F)(F)F)S(=O)(=O)C(F)(F)F)cc1N1CC2(CCOCC2)OC1=O [Compound 157] | 0 | 30 | 20 | 20 | 10 | 70 | 100 | 100 | 100 | 90 | 60 | 100 | 90 | 30 | 90 | 100 | 60 | 100 | 0 | 30 | Plant response rating, Barnyardgrass [4, 18]: 30; Plant response rating, Ragweed [5, 16]: 70; Plant response rating, Ryegrass, Italian [6, 18]: 40; Plant response rating, Pigweed [7, 16]: 90; Plant response rating, Ragweed [8, 18]: 40; Plant response rating, Blackgrass [9, 16]: 30; Plant response rating, Kochia (kochia (Bassia scoparia) [10]; [18]): 50; Plant response rating, Galium [11, 16]: 90; Plant response rating, Barnyardgrass [12, 16]: 20; Plant response rating, Foxtail, Giant [13, 18]: 80; Plant response rating, Wheat [14, 16]: 0; Plant response rating, Foxtail, Giant [15, 16]: 10 |
| Cc1cc(C)c(N(S(=O)(=O)C(F)(F)F)S(=O)(=O)C(F)(F)F)cc1C1=NOC2(CCCCCC2)C1 [Compound 158] |  | 0 |  | 0 |  | 20 |  | 50 | 30 | 10 | 30 | 30 | 30 | 20 | 70 | 70 | 0 | 90 | 0 | 0 | Ryegrass, Italian plant response rating [1, 19]: 0; Corn plant response rating (corn (Zea mays); [19]): 20; Kochia plant response rating (kochia (Bassia scoparia) [2]; [19]): 30; Plant response rating, Pigweed ([3]; 500 g ai/ha): 100; Plant response rating, Barnyardgrass ([4]; 500 g ai/ha): 100; Ragweed plant response rating [5, 19]: 20; Plant response rating, Ryegrass, Italian ([6]; 500 g ai/ha): 100; Pigweed plant response rating [7, 19]: 80; Plant response rating, Ragweed ([8]; 500 g ai/ha): 40; Blackgrass plant response rating [9, 19]: 0; Plant response rating, Kochia (kochia (Bassia scoparia) [10]; 500 g ai/ha): 80; Galium plant response rating [11, 19]: 90; Barnyardgrass plant response rating [12, 19]: 20; Plant response rating, Foxtail, Giant ([13]; 500 g ai/ha): 100; Wheat plant response rating [14, 19]: 0; Foxtail, Giant plant response rating [15, 19]: 20 |
| Cc1cc(C)c(C(=O)N2CCCOCC2)cc1NS(=O)(=O)C(F)(F)F [Compound 160] |  | 0 |  | 0 |  | 10 |  | 90 | 80 | 70 | 50 | 70 | 10 | 0 | 20 | 80 | 30 | 90 | 0 | 0 | Ryegrass, Italian plant response rating [1, 19]: 0; Corn plant response rating (corn (Zea mays); [19]): 10; Kochia plant response rating (kochia (Bassia scoparia) [2]; [19]): 30; Plant response rating, Pigweed ([3]; 500 g ai/ha): 100; Plant response rating, Barnyardgrass ([4]; 500 g ai/ha): 100; Ragweed plant response rating [5, 19]: 80; Plant response rating, Ryegrass, Italian ([6]; 500 g ai/ha): 60; Pigweed plant response rating [7, 19]: 90; Plant response rating, Ragweed ([8]; 500 g ai/ha): 90; Blackgrass plant response rating [9, 19]: 10; Plant response rating, Kochia (kochia (Bassia scoparia) [10]; 500 g ai/ha): 90; Galium plant response rating [11, 19]: 90; Barnyardgrass plant response rating [12, 19]: 80; Plant response rating, Foxtail, Giant ([13]; 500 g ai/ha): 100; Wheat plant response rating [14, 19]: 20; Foxtail, Giant plant response rating [15, 19]: 60 |
